Measurements from ChEMBL document CHEMBL4422609, “Overview of the Development of Glutaminase Inhibitors: Achievements and Future Directions” (J Med Chem, 2019).
Each block holds one compound with its values, some of them ahead of it.

Key:
[1] = Inhibition of GAC (unknown origin); parameters: species or system Homo sapiens
[2] = Inhibition of KGA (unknown origin) using glutamine as substrate preincubated for 20 mins followed by substrate addition and measured after 2 hrs; parameters: species or system Homo sapiens
[3] = Inhibition of KGA (unknown origin); parameters: species or system Homo sapiens
RPMI-8226 [4] = test: Antitumor activity against human RPMI8226 cells xenografted in mouse assessed as tumor growth inhibition at 200 mg/kg, po administered BID co-treated with pomalidomide relative to control; type: functional; details: RPMI-8226, po, read-out: TGI
JIMT-1 [5] = test: Antitumor activity against human JIMT1 cells xenografted in mouse assessed as tumor growth inhibition at 200 mg/kg, po administered BID co-treated with paclitaxel relative to control; type: functional; details: JIMT-1, po, read-out: TGI
NCI-H1650 [6] = test: Antitumor activity against human NCI-H1650 cells harboring EGFR mutant xenografted in mouse assessed as tumor growth inhibition co-treated with erlotinib relative to control; type: functional
NCI-H1650 [7] = test: Antitumor activity against human NCI-H1650 cells harboring EGFR mutant xenografted in mouse assessed as tumor growth inhibition relative to control; type: functional
RPMI-8226 [8] = test: Antitumor activity against human RPMI8226 cells xenografted in mouse assessed as tumor growth inhibition at 200 mg/kg, po administered BID relative to control; type: functional; details: RPMI-8226, po, read-out: TGI
NCI-H2122 [9] = test: Antitumor activity against human NCI-H2122 cells harboring KRAS mutant xenografted in mouse assessed as tumor growth inhibition relative to control; type: functional
[10] = Antiproliferative activity against human MDA-MB-231met2 cells; type: functional, cell-based
[11] = Antitumor activity against human CTG-0052 cells xenografted in mouse assessed as tumor growth inhibition at 200 mg/kg, po administered BID relative to control; type: functional; details: read-out: TGI
JIMT-1 [12] = test: Antitumor activity against human JIMT1 cells xenografted in mouse assessed as tumor growth inhibition at 200 mg/kg, po administered BID relative to control; type: functional; details: JIMT-1, po, read-out: TGI
NCI-H2122 [13] = test: Antitumor activity against human NCI-H2122 cells harboring KRAS mutant xenografted in mouse assessed as tumor growth inhibition co-treated with selumetinib relative to control; type: functional
[14] = Inhibition of GAC (unknown origin) by fluorescence labeling-based assay; parameters: species or system Homo sapiens
JIMT-1 [15] = test: Antitumor activity against human JIMT1 cells xenografted in mouse assessed as tumor growth inhibition at 10 mg/kg, po administered every other day for 5 doses relative to control; type: functional; details: JIMT-1, po, read-out: TGI
RPMI-8226 [16] = test: Antitumor activity against human RPMI8226 cells xenografted in mouse assessed as tumor growth inhibition at 1 mg/kg, po administered QD relative to control; type: functional; details: RPMI-8226, po, read-out: TGI

- IC50 [1]: 9300 nM
Structure (SMILES): CN(C)c1ccc(C2Nc3ccc4ccccc4c3C3=C2C(=O)CC(C)(C)C3)cc1Br (centres undefined)

- IC50 [2]: 160 nM
- IC50 [3]: 3000 nM
Structure (SMILES): O=C(Cc1ccccc1)Nc1nnc(CCSCCc2nnc(NC(=O)Cc3ccccc3)s2)s1

- IC50 [1]: 20 nM
Structure (SMILES): O=C(Cc1cccc(OC(F)(F)F)c1)Nc1ccc(CCCCc2nnc(NC(=O)Cc3ccccn3)s2)nn1
- inhibition in vivo at 200 mg/kg (RPMI-8226 [4]): 97%
- inhibition in vivo at 200 mg/kg (JIMT-1 [5]): 100%
- TGI (NCI-H1650 [6]): 89%
- TGI (NCI-H1650 [7]): 26%
- inhibition in vivo at 200 mg/kg (RPMI-8226 [8]): 64%
- TGI (NCI-H2122 [9]): 46%
- IC50 [10]: 2 to 300 nM
- inhibition in vivo at 200 mg/kg [11]: 61%
- inhibition in vivo at 200 mg/kg (JIMT-1 [12]): 54%
- TGI (NCI-H2122 [13]): 78%

- IC50 [1]: 50000 nM
Structure (SMILES): CN(C)c1ccc(C2Nc3ccc4ccccc4c3C3=C2C(=O)CC(C)(C)C3)cc1 (centres undefined)

- IC50 [1]: 20000 nM
Structure (SMILES): CC(C)c1ccc(C2Nc3ccc4ccccc4c3C3=C2C(=O)CC(C)(C)C3)cc1 (centres undefined)

- IC50 [14]: 10000 nM
Structure (SMILES): CC1(C)CC(=O)C2=C(C1)c1c(ccc3ccccc13)NC2c1ccc(C(C)(C)C)cc1 (centres undefined)

- IC50 [14]: 4500 nM
Structure (SMILES): CN(C)c1ccc(C2Nc3ccc(C(C)(C)C)cc3C3=C2C(=O)CC(C)(C)C3)cc1Br (centres undefined)

- IC50 [14]: 1500 nM
Structure (SMILES): CN(C)c1ccc(C2Nc3ccc4cc5ccccc5cc4c3C3=C2C(=O)CC(C)(C)C3)cc1Br (centres undefined)

- IC50 [2]: 100 nM
Structure (SMILES): O=C(Cc1ccccc1)Nc1nnc([C@@H]2CCC[C@@H](c3nnc(NC(=O)Cc4ccccc4)s3)C2)s1 (racemic)

Structure (SMILES): C#Cc1cccc(Nc2ncnc3cc(OCCOC)c(OCCOC)cc23)c1 [ERLOTINIB]
- TGI (NCI-H1650 [7]): 66%

Structure (SMILES): CC(=O)O[C@H]1C(=O)[C@@]2(C)[C@H]([C@H](OC(=O)c3ccccc3)[C@]3(O)C[C@H](OC(=O)[C@H](O)[C@@H](NC(=O)c4ccccc4)c4ccccc4)C(C)=C1C3(C)C)[C@]1(OC(C)=O)CO[C@@H]1C[C@@H]2O [PACLITAXEL]
- inhibition in vivo at 10 mg/kg (JIMT-1 [15]): 73%

Structure (SMILES): Nc1cccc2c1C(=O)N(C1CCC(=O)NC1=O)C2=O (centres undefined) [POMALIDOMIDE]
- inhibition in vivo at 1 mg/kg (RPMI-8226 [16]): 46%

Structure (SMILES): Cn1cnc2c(F)c(Nc3ccc(Br)cc3Cl)c(C(=O)NOCCO)cc21 [SELUMETINIB]
- TGI (NCI-H2122 [9]): 49%
